Laboratory results as given in patent US3988466A, “Prevention of gastric lesions” (priority 1973, dated 1976).

Tests used:
[1] = system: gastric secretion in pylorus-ligated rats; assay: Effect of L-glutamine on gastric secretion in pylorus-ligated rats (Experiment 4); assay type: in vivo, male Donryu strain rats; conditions: for Gastric juice volume / Pepsin concentration / Titrable acidity: 7 hours; for Acid output: volume × titrable acidity / 7 hours
Procedure: In this Experiment, 7 groups of male Donryu strain rats are used. After 24 hours of fasting, the pylorus of the animal is ligated in the same manner as described in Experiment 1. Six groups are treated in the same manner as described in Experiment 1 except for the injection of the solution of pontamine sky blue 6BX in saline. A seventh group (normal) is treated twice with 5 ml/kg of 1% carboxymethylcellulose solution.
After 7 hours of pylorus ligation, the animals are killed and the stomach is removed. The gastric juice is collected and the volume is measured. The gastric juice is titrated to pH 7.4 with 0.1N NaOH using an electromatic pH meter. The concentration of pepsin in the gastric juice is also determined according to Anson's hemoglobin method [Anson, M. L., J. Gen. Physiol.

[2] = system: yeast-induced fever in rats; assay: Effect of L-glutamine on antipyretic activity of aspirin in rats (Experiment B); assay type: in vivo, male Wistar strain rats; conditions: for Rectal temperature: L-glutamine 1000 mg/kg oral
Procedure: In this Experiment, male Wistar strain rats weighing about 90-100 g are treated with 2.5 ml/rat of a suspension of yeast (Brewers Yeast, product of Nutritional Biochem. Co., U.S.A.) in physiological saline (concentration: 250 mg/ml), by subcutaneous injection in the back, according to the method of Gleen et al [Gleen, E. M. et al: J. Pharma. Exp. Therp., 155, 157 (1967)]. The animals are then fasted. The animals showing an increased rectal temperature of 38° C or more after 17 hours are selected for use in experiment. […] As a control, one group is treated with 105 ml of 1% carboxymethylcellulose solution alone. After the treatment, the rectal temperature is measured at the time indicated.

[3] = L-glutamine 62.5 mg/kg, aspirin 100 mg/kg
[4] = L-glutamine 125 mg/kg, aspirin 100 mg/kg
[5] = L-glutamine 250 mg/kg, aspirin 100 mg/kg
[6] = L-glutamine 500 mg/kg, aspirin 100 mg/kg
[7] = L-glutamine 1000 mg/kg in presence of aspirin
[8] = L-glutamine 1,000 mg/kg, aspirin 100 mg/kg

For `NC(=O)CC[C@H](N)C(=O)O` [L-glutamine], the “acid parameters (in words)” value ([1]; L-glutamine 62.5 mg/kg in presence of aspirin) was “almost the same as those of the control group”, the Gastric juice volume [1, 3] was 12.3 ± 0.5 mL and the Pepsin concentration [1, 3] was 26.3 ± 0.5 mg/mL. For the same compound, the Titrable acidity [1, 3] was 56.2±3.8 mEq/L, the Acid output [1, 3] was 97.8±6.5 μEq/hr and the Gastric juice volume [1, 4] was 12.1 ± 0.6 mL. The Pepsin concentration [1, 4] was 25.5 ± 0.8 mg/mL, the Titrable acidity [1, 4] was 88.9±4.8 mEq/L and the Acid output [1, 4] was 154.0±12.1 μEq/hr. For the same compound, the “appearance of gastric juices compared with control group” value ([1]; L-glutamine 250 mg/kg or more, aspirin 100 mg/kg) was “relatively clear”, the Gastric juice volume [1, 5] was 12.5 ± 0.5 mL and the Pepsin concentration [1, 5] was 27.1 ± 0.7 mg/mL. For the same compound, the Titrable acidity [1, 5] was 108.0±4.2 mEq/L, the Acid output [1, 5] was 194.1±13.5 μEq/hr and the “change in acid parameters (in words)” value ([1]; L-glutamine 500 mg/kg in presence of aspirin) was “No significant change”. The Gastric juice volume [1, 6] was 11.9 ± 0.4 mL, the Pepsin concentration [1, 6] was 25.4 ± 0.7 mg/mL and the Titrable acidity [1, 6] was 127.1±4.6 mEq/L. For the same compound, the Acid output [1, 6] was 215.5±10.3 μEq/hr, the “effect on acid output (in words)” value [1, 7] was “considerably increases the titrable acidity and acid output” and the “effect on titrable acidity (in words)” value [1, 7] was “considerably increases the titrable acidity”. For the same compound, the Gastric juice volume [1, 8] was 12.2 ± 0.3 mL, the Pepsin concentration [1, 8] was 23.6 ± 1.1 mg/mL and the Titrable acidity [1, 8] was 139.4±3.4 mEq/L. The Acid output [1, 8] was 243.9±8.1 μEq/hr, the “pepsin concentration (in words)” value ([1]; L-glutamine at a wide range of doses) was “maintained at a normal level” and the Rectal temperature ([2]; 0 hour) was 38.6±0.2 °C. For the same compound, the Rectal temperature ([2]; 1 hour) was 38.5±0.2 °C, the Rectal temperature ([2]; 2 hours) was 38.2±0.3 °C and the Rectal temperature ([2]; 4 hours) was 38.1±0.4 °C. For the same compound, the Rectal temperature ([2]; 6 hours) was 38.2±0.3 °C and the “influence on antipyretic activity of aspirin” value ([2]; presence of L-glutamine) was “not substantially influenced”.
